C[C@@H](O)[C@H]1C(=O)N2C(C(=O)[O-])=C(SC3Cn4cnc[n+]4C3)[C@H](C)[C@H]12 (stereo partly drawn)
solubility (mole fraction)
Settings	in DMF	in DMSO	in NMP	in acetone	in acetonitrile	in ethanol	in ethyl acetate	in isopropanol	in methanol	in n-propanol
283.15 K	5.8e-05	–	7.58e-05	1.77e-06	3.63e-05	1.49e-05	5.21e-05	6.66e-06	1.86e-05	1.17e-05
288.15 K	6.44e-05	–	8.14e-05	2.51e-06	4.07e-05	1.76e-05	5.73e-05	8.24e-06	2.19e-05	1.37e-05
293.15 K	7.11e-05	7.86e-05	8.79e-05	3.4e-06	4.61e-05	2.09e-05	6.48e-05	9.98e-06	2.59e-05	1.62e-05
298.15 K	7.8e-05	8.66e-05	9.66e-05	4.57e-06	5.17e-05	2.46e-05	7.16e-05	1.2e-05	3.07e-05	1.97e-05
303.15 K	8.72e-05	9.47e-05	0.000106	5.97e-06	5.82e-05	2.9e-05	7.97e-05	1.41e-05	3.57e-05	2.32e-05
308.15 K	9.65e-05	0.000104	0.000117	8.13e-06	6.67e-05	3.41e-05	8.9e-05	1.69e-05	4.18e-05	2.7e-05
313.15 K	0.000107	0.000116	0.000128	1.06e-05	7.46e-05	3.97e-05	9.93e-05	2e-05	4.9e-05	3.19e-05
318.15 K	0.000119	0.000129	0.000141	1.39e-05	8.5e-05	4.54e-05	0.000111	2.37e-05	5.63e-05	3.71e-05
323.15 K	0.000131	0.000142	0.000156	1.79e-05	9.56e-05	5.23e-05	0.000123	2.79e-05	6.61e-05	4.32e-05

Reference: BigSolDB 2.1
